Measurements reported in PubChem BioAssay AID304 (DTP/NCI, 2004).
Where “and” joins values, the source holds several entries; their conditions need not be identical. Equal values may be shown once. Inconclusive results and toxic doses are left out.

System: Lymphosarcoma Mecca ip in C3AKF1 mice, survival T/C%
Assay: NCI In Vivo Anticancer Drug Screen. Data for tumor model Lymphosarcoma Mecca (intraperitoneal) in C3AKF1 (CHKRF1) mice
Details: endpoint: survival time, mean or median, higher = longer survival
Procedure: The antitumor activity of compounds was measured in mice bearing transplantable tumors. Survival or tumor size were measured and the results are expressed as the measurement made in the treated group (T) divided by the measurement made in the vehicle treated control group (C). The tumor model used in this assay is Lymphosarcoma Mecca (intraperitoneal) in C3AKF1 (CHKRF1) mice

[1] = dose: 1.0 mg/kg/injection, schedule: Q01DX010 (ip), vehicle: saline
[2] = dose: 5.0 mg/kg/injection, schedule: Q01DX010 (ip), vehicle: saline
[3] = dose: 10.0 mg/kg/injection, schedule: Q01DX010 (ip), vehicle: saline
[4] = dose: 25.0 mg/kg/injection, schedule: Q01DX010 (ip), vehicle: saline

## Nc1nc(=S)c2ncn(C3OC(CO)C(O)C3O)c2[nH]1 (stereo unspecified)
[1]
  T/C: 115 % of control and 120 % of control
dose: 2.0 mg/kg/injection, schedule: Q01DX010 (ip), vehicle: saline
  T/C: 115 % of control
dose: 4.0 mg/kg/injection, schedule: Q01DX010 (ip), vehicle: saline
  T/C: 105 % of control and 115 % of control
dose: 8.0 mg/kg/injection, schedule: Q01DX010 (ip), vehicle: saline
  T/C: 90 % of control and 105 % of control

## O=c1[nH]c(=O)n(C2CC(O)C(CO)O2)cc1F (stereo unspecified)
[2]
  T/C: 100 % of control
[3]
  T/C: 109 % of control and 115 % of control
dose: 20.0 mg/kg/injection, schedule: Q01DX010 (ip), vehicle: saline
  T/C: 113 % of control and 120 % of control
dose: 80.0 mg/kg/injection, schedule: Q01DX010 (ip), vehicle: saline
  T/C: 159 % of control

## N=[N+]=CC(=O)OCC(N)C(=O)O (stereo unspecified)
dose: 3.13 mg/kg/injection, schedule: Q01DX010 (ip), vehicle: saline
  T/C: 120 % of control and 124 % of control
dose: 6.25 mg/kg/injection, schedule: Q01DX010 (ip), vehicle: saline
  T/C: 100 % of control
dose: 12.5 mg/kg/injection, schedule: Q01DX010 (ip), vehicle: saline
  T/C: 116 % of control
[4]
  T/C: 105 % of control

## CC/C(=C(/CC)c1ccc(O)cc1)c1ccc(O)cc1
dose: 12.5 mg/kg/injection, schedule: Q01DX010 (sc), vehicle: steriod suspending solution
  T/C: 96 % of control and 110 % of control
dose: 25.0 mg/kg/injection, schedule: Q01DX010 (sc), vehicle: steriod suspending solution
  T/C: 120 % of control
dose: 50.0 mg/kg/injection, schedule: Q01DX010 (sc), vehicle: steriod suspending solution
  T/C: 88 % of control and 105 % of control
dose: 100.0 mg/kg/injection, schedule: Q01DX010 (sc), vehicle: steriod suspending solution
  T/C: 92 % of control and 100 % of control

## S=P(N1CCOCC1)(N1CC1)N1CC1
dose: 2.5 mg/kg/injection, schedule: Q01DX010 (ip), vehicle: saline
  T/C: 88 % of control
[2]
  T/C: 88 % of control
[3]
  T/C: 88 % of control

## NC(=O)n1cccn1
[4]
  T/C: 90 % of control
dose: 50.0 mg/kg/injection, schedule: Q01DX010 (ip), vehicle: saline
  T/C: 100 % of control
dose: 100.0 mg/kg/injection, schedule: Q01DX010 (ip), vehicle: saline
  T/C: 100 % of control
dose: 200.0 mg/kg/injection, schedule: Q01DX010 (ip), vehicle: saline
  T/C: 100 % of control

## CC(=O)NC1=C(N2CC2)C(=O)C(NC(C)=O)=C(N2CC2)C1=O
dose: 0.13 mg/kg/injection, schedule: Q01DX010 (ip), vehicle: saline
  T/C: 109 % of control
dose: 0.5 mg/kg/injection, schedule: Q01DX010 (ip), vehicle: saline
  T/C: 177 % of control and 188 % of control
[1]
  T/C: 109 % of control and 111 % of control
